Results as given in patent US10508109B2 (priority 2015, dated 2019).

Experiments:
[1] = test system: A549; assay: Cell-based assay, anti-proliferative activity (Cell Counting Kit-8, 72 hours); conditions: Homo sapiens; A549 cells, Cell Counting Kit-8, 72 hours; read-out: IC50 (μM) A549
Method in brief: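 IC50 values come from growth read-outs taken after the cells' exposure to each candidate inhibitor. Cells had been plated in 96-well microtiter plates beforehand.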

[2] = test system: CCD-18Co; assay: as above; conditions: Homo sapiens; CCD-18Co cells, Cell Counting Kit-8, 72 hours; read-out: IC50 (μM) CCD-18Co
Method in brief: (§1)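 IC50 values reflect cell growth measured by Cell Counting Kit-8 following 72 hours of inhibitor exposure across a twofold dilution range up to 100 micro-M.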

[3] = test system: HCT-116; assay: as above; conditions: Homo sapiens; HCT-116 cells, Cell Counting Kit-8, 72 hours; read-out: IC50 (μM) HCT-116
Method in brief: as §1

[4] = test system: HFL1; assay: as above; conditions: Homo sapiens; HFL1 cells, Cell Counting Kit-8, 72 hours; read-out: IC50 (μM) HFL1
Method in brief: as §1

[5] = test system: PC14; assay: as above; conditions: Homo sapiens, PC-14; PC14 cells, Cell Counting Kit-8, 72 hours; read-out: IC50 (μM) PC14
Method in brief: as §1

[6] = target: SUV39H2 (Homo sapiens (Human), UniProt Q9H5I1); conditions: read-out: IC50 (μM) Suv 39H2 assay; enzyme assay
SUV39H2, sequence (Q9H5I1 whole entry): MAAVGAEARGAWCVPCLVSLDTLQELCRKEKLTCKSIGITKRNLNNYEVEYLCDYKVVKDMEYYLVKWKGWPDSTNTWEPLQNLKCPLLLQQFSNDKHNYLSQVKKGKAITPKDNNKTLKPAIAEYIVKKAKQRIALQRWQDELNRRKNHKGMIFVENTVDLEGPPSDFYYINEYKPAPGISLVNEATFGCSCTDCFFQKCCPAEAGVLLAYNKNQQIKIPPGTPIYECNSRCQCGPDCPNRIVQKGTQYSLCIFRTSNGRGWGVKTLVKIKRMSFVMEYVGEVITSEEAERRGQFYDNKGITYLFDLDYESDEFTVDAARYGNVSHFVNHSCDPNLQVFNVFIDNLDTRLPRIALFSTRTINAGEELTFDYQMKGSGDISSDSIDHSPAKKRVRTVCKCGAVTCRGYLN

Row | SMILES | IC50 [1] [µM] | IC50 [2] [µM] | IC50 [3] [µM] | IC50 [4] [µM] | IC50 [5] [µM] | IC50 [6] [µM]
1 | COc1cc(OCCCN(C)C)c(-c2cn3ccc(N4CCCC4)cc3n2)cc1Cl [Example 80, 3-{4-chloro-5-methoxy-2-[7-(pyrrolidin-1-yl)imidazo[1,2-a]pyridin-2-yl]-phenoxy}-N,N-dimethylpropan-1-amine] | 1.6 | 1.8 | 1.1 | 0.85 | 1.7 | 0.00531
2 | COc1cc(OCC2CC2)c(-c2cn3ccc(N4CCCC4)cc3n2)cc1Cl [Example 82, 2-(5-chloro-2-(cyclopropylmethoxy)-4-methoxyphenyl)-7-(pyrrolidin-1-yl)imidazo[1,2-a]pyridine] | 3.5 | 3.8 | 3.2 | 2 | 4.7 | 0.00538
3 | COc1cc(OC)c(-c2cn3ccc(N4CCN(CCN(C)C)CC4)cc3n2)cc1Cl [Example 88, 2-(4-(2-(5-chloro-2,4-dimethoxyphenyl)imidazo[1,2-a]pyridin-7-yl)piperazin-1-yl)-N,N-dimethylethanamine] | 3.3 | 5.6 | 3.9 | 3 | 2.9 | 0.00884
4 | COc1cc(OC)c(-c2cn3cc(NCCN)c(N4CCOCC4)cc3n2)cc1Cl [Example 89, N^1-(2-(5-chloro-2,4-dimethoxyphenyl)-7-morpholinoimidazo[1,2-a]-pyridin-6-yl)ethane-1,2-diamine] | 3 | 3 | 4.4 | 1.6 | 2.7 | 0.00335
5 | COc1cc(OC)c(-c2cn3ccc(N4CCC(CCN(C)C)CC4)cc3n2)cc1Cl [Example 94, 2-(1-(2-(5-chloro-2,4-dimethoxyphenyl)imidazo[1,2-a]pyridin-7-yl)piperidin-4-yl)-N,N-dimethylethanamine] | 2.5 | 3.6 | 2.7 | 4.5 | 2.3 | 0.00887
6 | COc1cc(OC)c(-c2cn3ccc(N4CCN(CC#N)CC4)cc3n2)cc1Cl [Example 95, 2-(4-(2-(5-chloro-2,4-dimethoxyphenyl)imidazo[1,2-a]pyridin-7-yl)piperazin-1-yl)acetonitrile] | 2.9 | 5.3 | 3.4 | 4.1 | 3 | 0.00807
7 | COCCCN1CCN(c2ccn3cc(-c4cc(Cl)c(OC)cc4OC)nc3c2)CC1 [Example 96, 2-(5-chloro-2,4-dimethoxyphenyl)-7-(4-(3-methoxypropyl)piperazin-1-yl)imidazo[1,2-a]pyridine] | 6.9 | 6.8 | 9 | 8.4 | 6.4 | 0.00833
8 | COc1cc(OC)c(-c2cn3ccc(N4CCC(CN(C)C)CC4)cc3n2)cc1Cl [Example 97, 1-(1-(2-(5-Chloro-2,4-dimethoxyphenyl)imidazo[1,2-a]pyridin-7-yl)piperidin-4-yl)-N,N-dimethylmethanamine] | 3.2 | 6.5 | 2.8 | 2.4 | 2.3 | 0.00768
9 | COC(=O)N1CCN(c2ccn3cc(-c4cc(Cl)c(OC)cc4OC)nc3c2)CC1 [Example 99, methyl 4-[2-(5-chloro-2,4-dimethoxyphenyl)imidazo[1,2-a]pyridine-7-yl]piperazine-1-carboxylate] | 1.5 | 1.6 | 1.5 | 1.8 | 1.9 | 0.00606
10 | COc1cc(OC)c(-c2cn3ccc(N4CCN(S(=O)(=O)C5CC5)CC4)cc3n2)cc1Cl [Example 103, 2-(5-chloro-2,4-dimethoxyphenyl)-7-[4-(cyclopropylsulfonyl)piperazin-1-yl]imidazo[1,2-a]pyridine] | 1.3 | 1.6 | 0.55 | 0.61 | 0.7 | 0.0103
11 | COc1cc(OC)c(-c2cn3ccc(N4CCN(CCF)CC4)cc3n2)cc1Cl [Example 104, 2-(5-chloro-2,4-dimethoxyphenyl)-7-(4-(2-fluoroethyl)piperazin-1-yl)-imidazo[1,2-a]pyridine] | 6.7 | 8.9 | 8.3 | 4.2 | 4.7 | 0.00666
12 | COC(=O)NC1CCN(c2ccn3cc(-c4cc(Cl)c(OC)cc4OC)nc3c2)CC1 [Example 122, methyl (1-(2-(5-chloro-2,4-dimethoxyphenyl)imidazo[1,2-a]pyridin-7-yl)piperidin-4-yl)carbamate] | 2.7 | 6.4 | 5.8 | 4.9 | 3.3 | 0.00814
13 | COc1cc(OC)c(-c2cn3ccc(N4CCC(NC(=O)C(C)(C)C)CC4)cc3n2)cc1Cl [Example 123, N-(1-(2-(5-chloro-2,4-dimethoxyphenyl)imidazo[1,2-a]pyridin-7-yl)piperidin-4-yl)pivalamide] | 3.3 | 3.4 | 2.6 | 2 | 2.2 | 0.00771
14 | COc1cc(OC)c(-c2cn3ccc(N4CCC(NC(C)=O)CC4)cc3n2)cc1Cl [Example 124, N-{1-[2-(5-chloro-2,4-dimethoxyphenyl)imidazo[1,2-a]pyridin-7-yl]piperidin-4-yl}acetamide] | 2.2 | 3.1 | 1.9 | 3.1 | 1.9 | 0.00327
15 | COc1cc(OC)c(-c2cn3ccc(C4CCC(N)CC4)cc3n2)cc1Cl (stereo not drawn) [Example 125, 4-(2-(5-chloro-2,4-dimethoxyphenyl)imidazo[1,2-a]pyridin-7-yl)-cyclohexanamine] | 2.3 | 2.9 | 2.7 | 2.7 | 5 | 0.0651
16 | COc1cc(OC)c(-c2cn3ccc(N4CCC(NS(=O)(=O)C5CC5)CC4)cc3n2)cc1Cl [Example 126, N-{1-[2-(5-chloro-2,4-dimethoxyphenyl)imidazo[1,2-a]pyridin-7-yl]piperidin-4-yl}cyclopropanesulfonamide] | 2.1 | 1.8 | 1.9 | 1.4 | 3.1 | 0.014
17 | COc1cc(OCCCN(C)C)c(-c2cn3ccc(N4CCN(C(=O)OC(C)(C)C)CC4)cc3n2)cc1Cl [Example 127, tert-butyl 4-(2-{5-chloro-2-[3-(dimethylamino)propoxy]-4-methoxyphenyl}imidazo[1,2-a]pyridin-7-yl)piperazine-1-carboxylate] | 1.6 | 0.83 | 1.2 | 0.5 | 1.6 | 0.0995
18 | COc1cc(OC)c(-c2cn3ccc(N4CCC(NS(C)(=O)=O)CC4)cc3n2)cc1Cl [Example 128, N-{1-[2-(5-chloro-2,4-dimethoxyphenyl)imidazo[1,2-a]pyridin-7-yl]piperidin-4-yl}methanesulfonamide] | 1.5 | 1.1 | 4.5 | 0.58 | 1.8 | 0.00883
19 | CCCCCNC1CCN(c2ccn3cc(-c4cc(Cl)c(OC)cc4OC)nc3c2)CC1 [Example 129, 1-[2-(5-chloro-2,4-dimethoxyphenyl)imidazo[1,2-a]pyridin-7-yl]-N-pentylpiperidin-4-amine] | 1.5 | 1.3 | 0.74 | 0.7 | 1.7 | 0.00841
20 | COc1cc(OC)c(-c2cn3ccc(N4CCN(CCCN(C)C)CC4)cc3n2)cc1Br [Example 130, 3-(4-(2-(5-bromo-2,4-dimethoxyphenyl)imidazo[1,2-a]pyridin-7-yl)-piperazin-1-yl)-N,N-dimethylpropan-1-amine] | 2.7 | 6.6 | 2.8 | 4.6 | 2.6 | 0.003
21 | COc1cc(OC)c(-c2cn3ccc(N4CCN(CCN5CCOCC5)CC4)cc3n2)cc1Br [Example 131, 4-(2-(4-(2-(5-bromo-2,4-dimethoxyphenyl)imidazo[1,2-a]pyridin-7-yl)-piperazin-1-yl)ethyl)morpholine] | 8.3 | 8.3 | 8.4 | 7.3 | 6.8 | 0.00349
22 | CCOC(=O)CCN1CCN(c2ccn3cc(-c4cc(Cl)c(OC)cc4OC)nc3c2)CC1 [Example 132, ethyl 3-(4-(2-(5-chloro-2,4-dimethoxyphenyl)imidazo[1,2-a]pyridin-7-yl)piperazin-1-yl)propanoate] | 11 | 22 | 9.8 | 7.6 | 9 | 0.0124
23 | COc1cc(OC)c(-c2cn3ccc(C4=CCN(CCO)CC4)cc3n2)cc1Cl [Example 134, 2-(4-(2-(5-chloro-2,4-dimethoxyphenyl)imidazo[1,2-a]pyridin-7-yl)-5,6-dihydropyridin-1(2H)-yl)ethanol] | 5 | 5.4 | 6.8 | 3.8 | 5.3 | 0.0576
